Source: article PMC7026418, “The kinase polypharmacology landscape of clinical PARP inhibitors” (Scientific Reports, 2020)
Like-named read-outs stand apart in the source and are kept apart here.

Experiments:
Assay in all cases: biochemical
Parameters in all cases: DiscoveRx KINOMEscan active site-directed competition binding; percent of control kinase bound to immobilised ligand
[1] = molecular target: T1, ABL1(H396P)-nonphosphorylated (Homo sapiens, UniProt P00519, H396P)
T1 construct: nonphosphorylated

[2] = molecular target: CAMK2G (Homo sapiens, UniProt Q13555)
[3] = molecular target: GRK4 (Homo sapiens, UniProt P32298)
[4] = molecular target: T2, PYK2 (Homo sapiens, UniProt Q14289)
T2 construct: gene PTK2B

[5] = molecular target: T3, GAK (Homo sapiens, UniProt O14976)
T3 sequence (O14976 1-1311): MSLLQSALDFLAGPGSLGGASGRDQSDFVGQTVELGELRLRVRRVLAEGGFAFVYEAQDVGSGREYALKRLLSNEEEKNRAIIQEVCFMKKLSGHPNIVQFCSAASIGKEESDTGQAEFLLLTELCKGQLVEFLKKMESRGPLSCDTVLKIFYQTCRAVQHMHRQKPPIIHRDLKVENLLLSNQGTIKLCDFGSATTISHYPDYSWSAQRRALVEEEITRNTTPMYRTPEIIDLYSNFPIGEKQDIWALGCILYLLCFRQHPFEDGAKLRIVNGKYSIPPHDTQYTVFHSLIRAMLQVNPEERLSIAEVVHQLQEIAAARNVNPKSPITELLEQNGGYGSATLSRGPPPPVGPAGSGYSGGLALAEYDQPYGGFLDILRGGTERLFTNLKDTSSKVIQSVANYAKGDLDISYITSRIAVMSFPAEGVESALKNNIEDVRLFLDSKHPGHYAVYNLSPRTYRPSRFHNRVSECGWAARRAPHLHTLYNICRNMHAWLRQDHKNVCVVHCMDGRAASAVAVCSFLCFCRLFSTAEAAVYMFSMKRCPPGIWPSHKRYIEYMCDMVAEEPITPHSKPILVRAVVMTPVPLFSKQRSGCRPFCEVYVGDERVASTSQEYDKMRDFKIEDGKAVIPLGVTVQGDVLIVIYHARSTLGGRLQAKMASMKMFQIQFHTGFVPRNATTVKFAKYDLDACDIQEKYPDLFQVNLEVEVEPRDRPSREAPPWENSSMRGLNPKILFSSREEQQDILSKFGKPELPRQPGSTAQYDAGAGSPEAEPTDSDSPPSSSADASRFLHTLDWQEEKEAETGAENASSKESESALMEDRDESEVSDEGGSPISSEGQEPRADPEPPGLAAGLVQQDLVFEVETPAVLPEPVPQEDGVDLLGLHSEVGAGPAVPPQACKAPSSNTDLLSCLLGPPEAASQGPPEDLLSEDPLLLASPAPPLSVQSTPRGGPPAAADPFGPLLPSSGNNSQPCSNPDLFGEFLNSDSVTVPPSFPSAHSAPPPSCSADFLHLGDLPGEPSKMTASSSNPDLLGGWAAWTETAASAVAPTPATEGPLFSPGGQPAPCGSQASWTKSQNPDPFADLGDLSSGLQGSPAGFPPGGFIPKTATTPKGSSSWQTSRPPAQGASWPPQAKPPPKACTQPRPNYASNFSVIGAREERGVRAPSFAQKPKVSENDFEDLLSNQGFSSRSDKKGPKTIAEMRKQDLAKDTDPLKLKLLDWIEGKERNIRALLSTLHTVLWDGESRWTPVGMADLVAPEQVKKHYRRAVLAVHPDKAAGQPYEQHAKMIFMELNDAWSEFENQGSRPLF

[6] = molecular target: T4, CHEK1 (Homo sapiens, UniProt O14757)
T4 sequence (O14757 1-476): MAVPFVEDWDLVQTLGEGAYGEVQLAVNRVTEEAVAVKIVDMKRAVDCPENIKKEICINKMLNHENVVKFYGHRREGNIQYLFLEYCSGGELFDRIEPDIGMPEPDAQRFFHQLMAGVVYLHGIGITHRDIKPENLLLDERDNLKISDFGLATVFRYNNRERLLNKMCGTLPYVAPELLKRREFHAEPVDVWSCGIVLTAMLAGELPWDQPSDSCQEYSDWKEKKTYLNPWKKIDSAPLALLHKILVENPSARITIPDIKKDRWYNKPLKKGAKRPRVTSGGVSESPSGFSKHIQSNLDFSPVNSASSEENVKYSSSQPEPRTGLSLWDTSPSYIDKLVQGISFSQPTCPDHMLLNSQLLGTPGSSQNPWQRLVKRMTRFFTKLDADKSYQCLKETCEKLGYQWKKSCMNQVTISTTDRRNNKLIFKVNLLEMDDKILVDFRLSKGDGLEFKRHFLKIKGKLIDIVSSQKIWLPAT

[7] = molecular target: CSNK1E (Homo sapiens, UniProt P49674)
[8] = read-out: Talazoparib (BMN 673) / %Ctrl @ 10000nM
[9] = read-out: Olaparib / %Ctrl @ 10000nM
[10] = read-out: Rucaparib / %Ctrl @ 10000nM, binding competition, % of control
[11] = read-out: Niraparib (MK-4827) / %Ctrl @ 10000nM

Sequence of CAMK2G (Q13555 whole entry): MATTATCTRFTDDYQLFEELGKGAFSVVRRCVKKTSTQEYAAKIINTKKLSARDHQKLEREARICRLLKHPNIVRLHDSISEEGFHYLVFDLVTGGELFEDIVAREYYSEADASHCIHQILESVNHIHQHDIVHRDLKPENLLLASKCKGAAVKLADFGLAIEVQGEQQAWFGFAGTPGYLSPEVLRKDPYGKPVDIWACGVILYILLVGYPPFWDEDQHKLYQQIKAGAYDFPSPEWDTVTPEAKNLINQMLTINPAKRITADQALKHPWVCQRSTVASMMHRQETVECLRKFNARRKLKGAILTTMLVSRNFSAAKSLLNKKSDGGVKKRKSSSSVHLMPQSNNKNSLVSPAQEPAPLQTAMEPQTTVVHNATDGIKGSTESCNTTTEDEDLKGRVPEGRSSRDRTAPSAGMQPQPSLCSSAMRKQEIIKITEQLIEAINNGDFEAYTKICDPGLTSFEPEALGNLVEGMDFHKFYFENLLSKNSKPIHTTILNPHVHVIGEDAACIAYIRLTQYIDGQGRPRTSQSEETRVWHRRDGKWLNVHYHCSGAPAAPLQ
T2 sequence (Q14289 whole entry): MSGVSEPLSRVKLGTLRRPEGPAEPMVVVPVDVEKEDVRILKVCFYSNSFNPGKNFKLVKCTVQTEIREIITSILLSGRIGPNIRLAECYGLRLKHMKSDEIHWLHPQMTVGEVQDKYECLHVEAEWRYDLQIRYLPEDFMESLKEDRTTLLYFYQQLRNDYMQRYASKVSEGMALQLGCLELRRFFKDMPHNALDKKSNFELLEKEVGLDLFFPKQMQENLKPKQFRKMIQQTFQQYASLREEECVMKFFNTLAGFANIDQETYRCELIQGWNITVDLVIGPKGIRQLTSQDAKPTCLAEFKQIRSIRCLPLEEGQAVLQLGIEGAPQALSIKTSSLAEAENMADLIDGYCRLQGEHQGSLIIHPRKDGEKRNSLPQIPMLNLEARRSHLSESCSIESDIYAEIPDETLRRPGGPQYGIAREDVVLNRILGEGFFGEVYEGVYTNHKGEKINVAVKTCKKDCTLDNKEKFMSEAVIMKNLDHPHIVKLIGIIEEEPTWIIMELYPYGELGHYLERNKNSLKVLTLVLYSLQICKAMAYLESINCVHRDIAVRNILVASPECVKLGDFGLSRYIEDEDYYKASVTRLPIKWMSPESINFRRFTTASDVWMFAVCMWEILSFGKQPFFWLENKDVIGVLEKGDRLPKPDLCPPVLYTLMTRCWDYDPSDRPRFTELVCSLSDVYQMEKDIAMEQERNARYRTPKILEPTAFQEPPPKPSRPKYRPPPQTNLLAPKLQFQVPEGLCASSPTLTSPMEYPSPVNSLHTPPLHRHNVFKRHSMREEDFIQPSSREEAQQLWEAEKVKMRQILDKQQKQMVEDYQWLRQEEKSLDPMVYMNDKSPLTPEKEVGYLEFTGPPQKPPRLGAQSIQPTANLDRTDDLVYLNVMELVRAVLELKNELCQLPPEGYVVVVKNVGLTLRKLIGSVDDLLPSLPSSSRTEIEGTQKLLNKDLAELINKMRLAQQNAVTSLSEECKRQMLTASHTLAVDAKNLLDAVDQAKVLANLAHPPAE
Sequence of GRK4 (P32298 whole entry): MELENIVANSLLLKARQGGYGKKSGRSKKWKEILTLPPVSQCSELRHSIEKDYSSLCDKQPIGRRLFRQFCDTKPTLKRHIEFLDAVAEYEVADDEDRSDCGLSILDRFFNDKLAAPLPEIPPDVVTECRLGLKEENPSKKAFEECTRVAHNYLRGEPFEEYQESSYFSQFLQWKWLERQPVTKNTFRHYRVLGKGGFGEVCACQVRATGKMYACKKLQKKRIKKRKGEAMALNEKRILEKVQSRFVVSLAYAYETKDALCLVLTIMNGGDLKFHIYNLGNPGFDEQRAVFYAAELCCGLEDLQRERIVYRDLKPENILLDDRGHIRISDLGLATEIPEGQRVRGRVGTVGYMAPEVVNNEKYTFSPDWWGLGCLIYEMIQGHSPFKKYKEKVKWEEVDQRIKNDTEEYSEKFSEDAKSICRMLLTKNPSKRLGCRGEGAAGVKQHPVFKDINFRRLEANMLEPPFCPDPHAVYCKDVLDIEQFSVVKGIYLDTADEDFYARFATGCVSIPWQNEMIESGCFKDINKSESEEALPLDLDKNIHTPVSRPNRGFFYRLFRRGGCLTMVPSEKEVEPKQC
Sequence of CSNK1E (P49674 whole entry): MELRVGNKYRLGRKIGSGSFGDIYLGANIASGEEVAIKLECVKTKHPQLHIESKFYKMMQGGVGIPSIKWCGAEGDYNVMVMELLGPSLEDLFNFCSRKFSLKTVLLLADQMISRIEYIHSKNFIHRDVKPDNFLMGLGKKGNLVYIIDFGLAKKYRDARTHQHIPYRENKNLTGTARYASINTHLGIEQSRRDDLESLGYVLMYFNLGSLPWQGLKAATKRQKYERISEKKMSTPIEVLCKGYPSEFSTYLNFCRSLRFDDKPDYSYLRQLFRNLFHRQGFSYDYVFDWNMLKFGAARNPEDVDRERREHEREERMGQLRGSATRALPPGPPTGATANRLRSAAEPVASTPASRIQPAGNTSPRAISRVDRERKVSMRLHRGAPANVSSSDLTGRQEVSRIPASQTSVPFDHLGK

## Cn1ncnc1[C@H]1c2n[nH]c(=O)c3cc(F)cc(c23)N[C@@H]1c1ccc(F)cc1 [Talazoparib]
[1]; [8]
  percent of control binding at 10 µM: 92%
[2]; [8]
  percent of control binding at 10 µM: 95%
[3]; [8]
  percent of control binding at 10 µM: 100%
[4]; [8]
  percent of control binding at 10 µM: 97%
[5]; [8]
  percent of control binding at 10 µM: 100%
[6]; [8]
  percent of control binding at 10 µM: 86%
[7]; [8]
  percent of control binding at 10 µM: 69%

## O=C(c1cc(Cc2n[nH]c(=O)c3ccccc23)ccc1F)N1CCN(C(=O)C2CC2)CC1 [Olaparib]
[1]; [9]
  percent of control binding at 10 µM: 82%
[2]; [9]
  percent of control binding at 10 µM: 100%
[3]; [9]
  percent of control binding at 10 µM: 91%
[4]; [9]
  percent of control binding at 10 µM: 99%
[5]; [9]
  percent of control binding at 10 µM: 100%
[6]; [9]
  percent of control binding at 10 µM: 79%
[7]; [9]
  percent of control binding at 10 µM: 90%

## CNCc1ccc(-c2[nH]c3cc(F)cc4c3c2CCNC4=O)cc1 [Rucaparib]
[1]; [10]
  percent of control binding at 10 µM: 68%
[2]; [10]
  percent of control binding at 10 µM: 83%
[3]; [10]
  percent of control binding at 10 µM: 100%
[4]; [10]
  percent of control binding at 10 µM: 100%
[5]; [10]
  percent of control binding at 10 µM: 35%
[6]; [10]
  percent of control binding at 10 µM: 100%
[7]; [10]
  percent of control binding at 10 µM: 76%

## NC(=O)c1cccc2cn(-c3ccc([C@@H]4CCCNC4)cc3)nc12 [Niraparib]
[1]; [11]
  percent of control binding at 10 µM: 65%
[2]; [11]
  percent of control binding at 10 µM: 95%
[3]; [11]
  percent of control binding at 10 µM: 62%
[4]; [11]
  percent of control binding at 10 µM: 86%
[5]; [11]
  percent of control binding at 10 µM: 58%
[6]; [11]
  percent of control binding at 10 µM: 72%
[7]; [11]
  percent of control binding at 10 µM: 57%
